Reference: publication PMC11472313, “Development of Fragment-Based Inhibitors of the Bacterial Deacetylase LpxC with Low Nanomolar Activity” (Journal of Medicinal Chemistry, 2024)
Converted amounts (≈) assume the structure as drawn.

Experiments:
[1] = plasma protein binding, mouse; assay type: in vitro ADME; settings: for fraction unbound: plasma
Procedure: The microsomal metabolic stability assay as well as the plasma protein binding assay were conducted as described previously.[78]

[2] = kinetic turbidimetric solubility; assay type: physicochemical; settings: PBS with 1% DMSO, Kinetic solubility (1% DMSO/PBS)
Procedure: The desired compounds were sequentially diluted in DMSO in a 96-well plate. 1.5 μL from each well was transferred into another 96-well plate and mixed with 148.5 μL of PBS. Plates were shaken for 5 min at 600 rpm at room temperature, and the absorbance at 620 nm was measured. Absorbance values were normalized by blank subtraction and plotted using GraphPad Prism 8.4.2 (GraphPad Software, San Diego, CA, USA). Solubility (S) was determined based on the First X value of AUC function using a threshold of 0.005.

MMP1 = target: T1, MMP1 (Homo sapiens, UniProt P03956); test: MMP1 inhibition (SensoLyte 520 Generic MMP Activity Kit); assay type: biochemical; settings: read-out: MMP1 (% inhibition at 100 μM)
T1 construct: purchased AnaSpec (Fremont, CA, USA)
T1 sequence (P03956 100-469): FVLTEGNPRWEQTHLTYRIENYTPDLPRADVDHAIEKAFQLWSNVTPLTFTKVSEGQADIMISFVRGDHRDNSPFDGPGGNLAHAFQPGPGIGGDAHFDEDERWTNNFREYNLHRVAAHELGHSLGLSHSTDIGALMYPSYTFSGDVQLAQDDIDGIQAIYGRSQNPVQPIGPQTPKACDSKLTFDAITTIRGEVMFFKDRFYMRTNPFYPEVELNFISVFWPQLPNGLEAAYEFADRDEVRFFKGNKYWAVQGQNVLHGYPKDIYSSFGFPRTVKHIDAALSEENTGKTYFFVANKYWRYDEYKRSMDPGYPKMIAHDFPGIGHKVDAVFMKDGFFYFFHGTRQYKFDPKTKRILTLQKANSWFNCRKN
Procedure: Since LpxC and LasB are zinc-dependent enzymes, we investigated potential off-target activity of the three frontrunners on mammalian zinc-dependent enzymes. Our panel comprised three representative matrix-metalloproteases (MMP1–3) and tumor necrosis factor-α converting enzyme (TACE, also known as ADAM17) (Table 6).
Purification of LasB from P. aeruginosa PA14 supernatant and the subsequent performance of the FRET-based in vitro inhibition assay was performed as described previously.[66] The TACE (ADAM-17) inhibitor screening kit was purchased from Sigma-Aldrich (Saint Louis, MO). MMPs 1–3 along with the SensoLyte 520 Generic MMP Activity Kit Fluorimetric were purchased from AnaSpec (Fremont, CA, USA). The assays were performed according to the guidelines of the respective manufacturer. Fluorescence signals were measured using a CLARIOstar plate reader (BMG Labtech, Ortenberg, Germany).

[3] = stability in mouse plasma; assay type: in vitro ADME; settings: 1 μM compound, pooled CD-1 mouse plasma; for half-life at 1 μM: CD-1, mouse, pooled plasma, read-out: mouse plasma stability t1/2
Procedure: To determine stability in mouse plasma, the compound (1 μM) was incubated with pooled CD-1 mouse plasma (Neo Biotech, Nanterre, France). Samples were taken at defined time points by mixing aliquots with 4 volumes of acetonitrile containing internal standard (125 nM diphenhydramine). Samples were stored on ice until the end of the incubation, and the precipitated protein was removed by centrifugation (15 min, 4 °C, 4000g, 2 centrifugation steps). Concentration of the remaining test compound at the different time points was analyzed by HPLC–MS/MS (TSQ Quantum Access MAX, Thermo Fisher, Dreieich, Germany). The plasma stability of procain, propantheline, and diltiazem were determined in parallel to confirm enzymatic activity.

Compound: O=C(NC[C@H](OCc1ccc(C#Cc2ccc(CN3CCOCC3)cc2)cc1)C(=O)NO)c1c[nH]c2ccccc12 [(S)-13h]
- fraction unbound [1]: 0.0541
- solubility kinetic at 5 min [2]: 53.5 ± 1.9 µM (≈ 29.6 µg/mL)
- inhibition at 100 µM (MMP1): 15 ± 7%
- half-life at 1 μM [3]: 22.9 ± 4.8 min

Compound: O=C(NC[C@H](OCc1ccc(C#Cc2ccc(CN3CCOCC3)cc2)cc1)C(=O)NO)c1ccc2[nH]ccc2c1 [(S)-13j]
- fraction unbound [1]: 0.0795
- solubility kinetic at 5 min [2]: 46 ± 11 µM (≈ 25.4 µg/mL)
- inhibition at 100 µM (MMP1): < 10%
- mouse plasma stability t1/2 [3]: 43 ± 13 min
- half-life at 1 μM [3]: 43.1 min

Compound: O=C(NC[C@H](OCc1ccc(C#Cc2ccc(CN3CCOCC3)cc2)cc1)C(=O)NO)c1cc[nH]n1 [(S)-13l]
- plasma protein binding mouse [1]: 79.42 ± 2.5%
- fraction unbound [1]: > 0.2
- solubility kinetic at 5 min [2]: ≥ 100 µM
- inhibition at 100 µM (MMP1): 11 ± 6%
- half-life at 1 μM [3]: 24.2 ± 5 min
